Source: ChEMBL document CHEMBL1201862, “PubChem BioAssay data set” (2004)
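Grown in 96-well plates, cells were treated for 48 hours with each compound at five concentrations. Insufficient inhibition: endpoint recorded as highest concentration tested. At the GI50, growth is halved.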 Calls of active or inactive are those of the source. Rule as the data show it: active = GI50 up to about 1.1 µM and inactive = higher.

Legend:
Assay in all cases: NCI anticancer screen, dose series, 48 h
[1] = system: 786-0
[2] = system: A498
[3] = system: A549
[4] = system: ACHN
[5] = system: BT-549
[6] = system: CAKI-1
[7] = system: CCRF-CEM
[8] = system: COLO 205
[9] = system: DU-145
[10] = system: EKVX
[11] = system: HCC 2998
[12] = system: HCT-116
[13] = system: HCT-15
[14] = system: HL-60
[15] = system: HOP-62
[16] = system: HOP-92
[17] = system: HT-29
[18] = system: Hs-578T
[19] = system: IGROV-1
[20] = system: K562
[21] = system: KM12
[22] = system: M14
[23] = system: MCF7
[24] = system: MDA-MB-231
[25] = system: MDA-MB-435
[26] = system: MDA-N
[27] = system: MOLT-4
[28] = system: Malme-3M
[29] = system: NCI-H226
[30] = system: NCI-H23
[31] = system: NCI-H460
[32] = system: NCI-H522
[33] = system: NCI/ADR-RES
[34] = system: OVCAR-3
[35] = system: OVCAR-4
[36] = system: OVCAR-5
[37] = system: OVCAR-8
[38] = system: PC-3
[39] = system: RPMI-8226
[40] = system: RXF 393
[41] = system: SF-268
[42] = system: SF-295
[43] = system: SF-539
[44] = system: SK-MEL-28
[45] = system: SK-MEL-2
[46] = system: SK-MEL-5
[47] = system: SK-OV-3
[48] = system: SN12C
[49] = system: SNB-19
[50] = system: SR
[51] = system: SW-620
[52] = system: T47D
[53] = system: TK-10
[54] = system: U-251
[55] = system: UACC-257
[56] = system: UACC-62
[57] = system: UO-31
[58] = system: LOX IMVI
[59] = system: SNB-75

## O=C(c1ccccc1)c1c(-c2ccccc2)[nH]n(-c2ccc([N+](=O)[O-])cc2)c(=O)c1=O
[1]
  GI50: > 100 µM (inactive)
[2]
  GI50: > 100 µM (inactive)
[3]
  GI50: 38.5 µM (inactive)
[4]
  GI50: 99.1 µM (inactive)
[5]
  GI50: 27.6 µM (inactive)
[6]
  GI50: 87.3 µM (inactive)
[7]
  GI50: 47 µM (inactive)
[8]
  GI50: > 100 µM (inactive)
[9]
  GI50: > 100 µM (inactive)
[10]
  GI50: 91 µM (inactive)
[11]
  GI50: 64.7 µM (inactive)
[12]
  GI50: 53.2 µM (inactive)
[13]
  GI50: 39.5 µM
[14]
  GI50: > 100 µM (inactive)
[15]
  GI50: > 100 µM (inactive)
[16]
  GI50: 16.8 µM (inactive)
[17]
  GI50: 36.6 µM (inactive)
[18]
  GI50: 0.504 µM (active)
[19]
  GI50: > 100 µM (inactive)
[20]
  GI50: 41.5 µM (inactive)
[21]
  GI50: 94.8 µM (inactive)
[22]
  GI50: > 100 µM (inactive)
[23]
  GI50: 33.7 µM (inactive)
[24]
  GI50: 30.1 µM (inactive)
[25]
  GI50: 75.2 µM (inactive)
[26]
  GI50: > 100 µM (inactive)
[27]
  GI50: 37.2 µM (inactive)
[28]
  GI50: > 100 µM (inactive)
[29]
  GI50: 39.7 µM (inactive)
[30]
  GI50: 0.2 µM (active)
[31]
  GI50: 37.2 µM (inactive)
[32]
  GI50: 23.4 µM (inactive)
[33]
  GI50: 49.5 µM (inactive)
[34]
  GI50: 56.2 µM (inactive)
[35]
  GI50: 25.8 µM (inactive)
[36]
  GI50: > 100 µM (inactive)
[37]
  GI50: 31.1 µM (inactive)
[38]
  GI50: 42.9 µM (inactive)
[39]
  GI50: 43.9 µM (inactive)
[40]
  GI50: > 100 µM (inactive)
[41]
  GI50: 40.2 µM (inactive)
[42]
  GI50: 46.8 µM (inactive)
[43]
  GI50: 28.8 µM (inactive)
[44]
  GI50: 21 µM (inactive)
[45]
  GI50: 21.1 µM (inactive)
[46]
  GI50: > 100 µM (inactive)
[47]
  GI50: 36.9 µM (inactive)
[48]
  GI50: 57.3 µM (inactive)
[49]
  GI50: 6.47 µM (inactive)
[50]
  GI50: 35.5 µM (inactive)
[51]
  GI50: 42.6 µM (inactive)
[52]
  GI50: 81.8 µM (inactive)
[53]
  GI50: 91.8 µM (inactive)
[54]
  GI50: 5.78 µM (inactive)
[55]
  GI50: 41.5 µM (inactive)
[56]
  GI50: < 0.01 µM (active)
[57]
  GI50: 32.1 µM (inactive)

## COc1nc(N)c(N=O)c(OCc2ccccc2)n1
[1]
  GI50: 5.21 µM (inactive)
[2]
  GI50: > 10 µM (inactive)
[3]
  GI50: > 10 µM (inactive)
[4]
  GI50: 7.35 µM (inactive)
[5]
  GI50: 4.01 µM (inactive)
[6]
  GI50: 3.51 µM (inactive)
[7]
  GI50: 2.31 µM (inactive)
[8]
  GI50: 1.09 µM (active)
[9]
  GI50: > 10 µM (inactive)
[10]
  GI50: 2.64 µM (inactive)
[11]
  GI50: > 10 µM (inactive)
[12]
  GI50: 9.71 µM (inactive)
[13]
  GI50: 2.5 µM
[14]
  GI50: 4.84 µM (inactive)
[15]
  GI50: > 10 µM (inactive)
[16]
  GI50: > 10 µM (inactive)
[17]
  GI50: 3.38 µM (inactive)
[18]
  GI50: > 10 µM (inactive)
[19]
  GI50: > 10 µM (inactive)
[20]
  GI50: > 10 µM (inactive)
[21]
  GI50: > 10 µM (inactive)
[58]
  GI50: 4.19 µM (inactive)
[22]
  GI50: 4.84 µM (inactive)
[23]
  GI50: 5.04 µM (inactive)
[24]
  GI50: 3.32 µM (inactive)
[25]
  GI50: 6.31 µM (inactive)
[26]
  GI50: 5.36 µM (inactive)
[27]
  GI50: 8.39 µM (inactive)
[28]
  GI50: 3.12 µM (inactive)
[29]
  GI50: > 10 µM (inactive)
[30]
  GI50: > 10 µM (inactive)
[31]
  GI50: 9.29 µM (inactive)
[32]
  GI50: 1.71 µM (inactive)
[33]
  GI50: 6.55 µM (inactive)
[34]
  GI50: 4.01 µM (inactive)
[35]
  GI50: 3.61 µM (inactive)
[36]
  GI50: > 10 µM (inactive)
[37]
  GI50: 3.52 µM (inactive)
[38]
  GI50: > 10 µM (inactive)
[39]
  GI50: > 10 µM (inactive)
[40]
  GI50: 5.15 µM (inactive)
[41]
  GI50: > 10 µM (inactive)
[42]
  GI50: > 10 µM (inactive)
[43]
  GI50: 3.3 µM (inactive)
[44]
  GI50: > 10 µM (inactive)
[45]
  GI50: > 10 µM (inactive)
[46]
  GI50: 7.89 µM (inactive)
[47]
  GI50: > 10 µM (inactive)
[48]
  GI50: 7.59 µM (inactive)
[49]
  GI50: > 10 µM (inactive)
[59]
  GI50: > 10 µM (inactive)
[50]
  GI50: 4.84 µM (inactive)
[51]
  GI50: 1.61 µM (inactive)
[52]
  GI50: 2.76 µM (inactive)
[53]
  GI50: > 10 µM (inactive)
[54]
  GI50: > 10 µM (inactive)
[55]
  GI50: > 10 µM (inactive)
[56]
  GI50: 5.89 µM (inactive)
